Experimental data as given in patent US20260053836A1, “CHRONIC WOUND HEALING COMPOSITION AND APPLICATION THEREOF” (priority 2019, published 2026).

Legend:
HaCaT cells = assay: Cell migration assay of HaCaT cells in high glucose culture; assay type: cell-based, human; conditions: high glucose (25 mM), 48 hours, control group taken as 1
Experimental: Human dermal fibroblasts (HDF cells) or human keratinocytes (HuCaT cells) were cultured in a humid incubator at 37° C. in an environment of 5% carbon dioxide and […] and placed in Dulbecco's modified Eagle's medium (DMEM) supplemented with glucose, 10% fetal bovine serum, 100 IU/mL penicillin, 100 μg/mL streptomycin, 2 mM sodium pyruvate and 1% nonessential amino acids (NEAA). The medium was changed every two days. For subculture, cells were harvested and re-cultured at a 1:10 dilution after exposure to 0.1% Trypsin-EDTA mixture. The cells used in the study ranged from 12 to 40 passages. 24 hours before drug treatment, cells were seeded and left for 24 hours. The control group was maintained in the medium and […]. Under this culture condition, cell growth and differentiation are not affected.
HaCaT cells were cultured at 1×10^5 with addition of 25 mM glucose in a 24-well culture dish for 48 hours, and the following drugs were added to observe the cell migration state: • Con: the control group; • BO 18.8 μM+A 16.0 μM; • BSG 14.2 μM+A 16.0 μM; • BO 18.8 μM+BSG 14.2 μM; • All: A 16.0 μM+BO 18.8 μM+BSG 14.2 μM.

Staphylococcus aureus = conditions: Guillermo et al., 1999; cited from earlier work

| Structure (SMILES) | cell migration (HaCaT cells) | antibacterial efficacy (Staphylococcus aureus) |
| --- | --- | --- |
| O=C(O)c1cc(O)c2c(c1)[O][Bi]([OH])[O]2 [BSG, Bismuth subgallate] | no promoting effect | – |
| CC1(C)C2CCC1(C)C(O)C2 (stereo not drawn) [BO, Borneal] | no promoting effect | – |
| C[C@@H]1O[C@@H](O[C@@H]2[C@@H](O)[C@H](OCCc3ccc(O)c(O)c3)O[C@H](CO)[C@H]2OC(=O)/C=C/c2ccc(O)c(O)c2)[C@H](O)[C@H](O)[C@H]1O [Acteosides, Acteoside] | – | good antibacterial efficacy |
